As usually defined, the Ki is the dissociation constant of the complex between target and ligand, obtained from inhibition or displacement.

From patent US20250270172A1, “Pyrimidine Derivatives As Modulators of the 5-HT2A Serotonin Receptor Useful For The Treatment of Disorders Related Thereto” (Arena Pharmaceuticals, Inc., priority 2020, published 2025) come the findings set out here.

This assay addresses 5-HT2A (Homo sapiens (Human), UniProt P28223). As to the kind of experiment: Radioligand binding assay, [^3H]5-HT competition, 5-HT2A. Particulars: [^3H]5-HT radioligand, membranes of HEK293 cells expressing recombinant 5-HT2A; Ki from IC50 by Cheng-Prusoff; read-out: 5-HT2A serotonin binding Ki value.

5-HT2A, sequence (P28223 whole entry): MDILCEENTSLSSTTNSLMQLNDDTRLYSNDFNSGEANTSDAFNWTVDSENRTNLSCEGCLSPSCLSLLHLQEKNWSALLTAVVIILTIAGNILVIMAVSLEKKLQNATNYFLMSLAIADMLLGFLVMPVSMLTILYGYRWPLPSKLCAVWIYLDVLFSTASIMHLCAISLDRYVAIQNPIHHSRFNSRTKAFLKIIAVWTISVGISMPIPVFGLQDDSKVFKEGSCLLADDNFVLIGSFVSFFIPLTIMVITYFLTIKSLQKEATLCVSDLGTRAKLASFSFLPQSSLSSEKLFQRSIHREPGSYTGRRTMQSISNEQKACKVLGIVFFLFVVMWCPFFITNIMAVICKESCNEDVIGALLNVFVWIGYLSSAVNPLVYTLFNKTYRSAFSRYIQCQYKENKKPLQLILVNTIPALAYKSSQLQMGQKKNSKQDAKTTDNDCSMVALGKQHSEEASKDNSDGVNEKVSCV

`COCCNCCOc1ccc(NC(=O)c2c(F)cnn2C)cc1-c1c(C)ncnc1C` [Compound 375, N-(3-(4,6-dimethylpyrimidin-5-yl)-4-(2-((2-methoxyethyl)amino)ethoxy)phenyl)-4-fluoro-1-methyl-1H-pyrazole-5-carboxamide]: the Ki stood at 13.3 nM.
For the molecule `COCCN(C)CCOc1ccc(NC(=O)c2ccccc2)cc1-c1c(C)ncnc1C` [Compound 376, N-(3-(4,6-dimethylpyrimidin-5-yl)-4-(2-((2-methoxyethyl) (methyl)amino)ethoxy)phenyl)benzamide], the inhibition constant (Ki) amounted to 63.3 nM.
Regarding `COCCN(C)CCOc1ccc(NC(=O)c2cccc(OC)c2)cc1-c1c(C)ncnc1C` [Compound 377, N-(3-(4,6-dimethylpyrimidin-5-yl)-4-(2-((2-methoxyethyl)(methyl)amino)ethoxy)phenyl)-3-methoxybenzamide], the Ki was 2.64 nM.
For the molecule `COCCN(C)CCOc1ccc(NC(=O)c2cccc(F)c2)cc1-c1c(C)ncnc1C` [Compound 378, N-(3-(4,6-dimethylpyrimidin-5-yl)-4-(2-((2-methoxyethyl)(methyl)amino)ethoxy)phenyl)-3-fluorobenzamide], the Ki was found to be 12.5 nM.
`COCCN(C)CCOc1ccc(NC(=O)c2ccc(F)cc2)cc1-c1c(C)ncnc1C` [Compound 379, N-(3-(4,6-dimethylpyrimidin-5-yl)-4-(2-((2-methoxyethyl)(methyl)amino)ethoxy)phenyl)-4-fluorobenzamide]: the Ki stood at 8.38 nM.
On to `COCCN(C)CCOc1ccc(NC(=O)c2c(F)cnn2C)cc1-c1c(C)ncnc1C` [Compound 380, N-(3-(4,6-dimethylpyrimidin-5-yl)-4-(2-((2-methoxyethyl)(methyl)amino)ethoxy)phenyl)-4-fluoro-1-methyl-1H-pyrazole-5-carboxamide], for which the Ki was found to be 9.47 nM.
Next, `Cc1ncnc(C)c1-c1cc(NC(=O)c2ccccc2)ccc1OCCN1C[C@@H]2C[C@H]1CO2` [Compound 381, N-(4-(2-((1S,4S)-2-oxa-5-azabicyclo[2.2.1]heptan-5-yl)ethoxy)-3-(4,6-dimethylpyrimidin-5-yl)phenyl)benzamide]: 5.54 nM; `Cc1ncnc(C)c1-c1cc(NC(=O)C2(F)CC2)ccc1OCCN1C[C@@H]2C[C@H]1CO2` [Compound 382, N-(4-(2-((1S,4S)-2-oxa-5-azabicyclo[2.2.1]heptan-5-yl)ethoxy)-3-(4,6-dimethylpyrimidin-5-yl)phenyl)-1-fluorocyclopropane-1-carboxamide]: 8.81 nM.
With `Cc1ncnc(C)c1-c1cc(NC(=O)c2ccnn2C)ccc1OCCN1C[C@@H]2C[C@H]1CO2` [Compound 383, N-(4-(2-((1S,4S)-2-oxa-5-azabicyclo[2.2.1]heptan-5-yl)ethoxy)-3-(4,6-dimethylpyrimidin-5-yl)phenyl)-1-methyl-1H-pyrazole-5-carboxamide] the figure was 8.89 nM; with `Cc1ncnc(C)c1-c1cc(NC(=O)c2ccccc2)ccc1OCCN1C[C@H]2C[C@H]2C1` [Compound 384, N-[4-[2-[(1R,5S)-3-azabicyclo[3.1.0]hexan-3-yl]ethoxy]-3-(4,6-dimethylpyrimidin-5-yl)phenyl]benzamide], 3.63 nM; with `Cc1ncnc(C)c1-c1cc(NC(=O)C2CC2)ccc1OCCN1CC(F)C1` [Compound 386, N-[3-(4,6-Dimethylpyrimidin-5-yl)-4-[2-(3-fluoroazetidin-1-yl)ethoxy]phenyl]cyclopropanecarboxamide], 1.48 nM.
Next, `Cc1ncnc(C)c1-c1cc(NC(=O)c2ccccc2)ccc1OCCN1CC(F)C1` [Compound 387, N-[3-(4,6-dimethylpyrimidin-5-yl)-4-[2-(3-fluoroazetidin-1-yl)ethoxy]phenyl]benzamide]: 13.3 nM; `Cc1ncnc(C)c1-c1cc(NC(=O)C2CC2)ccc1OCCN1CC(O)C1` [Compound 388, N-[3-(4,6-dimethylpyrimidin-5-yl)-4-[2-(3-hydroxyazetidin-1-yl)ethoxy]phenyl]cyclopropanecarboxamide]: 13.7 nM.
With `Cc1ncnc(C)c1-c1cc(NC(=O)c2ccccc2)ccc1OCCN1CC(O)C1` [Compound 389, N-[3-(4,6-dimethylpyrimidin-5-yl)-4-[2-(3-hydroxyazetidin-1-yl)ethoxy]phenyl]benzamide], the Ki was determined as 11.2 nM.
Next, `Cc1ncnc(C)c1-c1cc(NC(=O)C2CC2)ccc1OCCN1CCOCC1` [Compound 390, N-[3-(4,6-dimethylpyrimidin-5-yl)-4-(2-morpholinoethoxy)phenyl]cyclopropanecarboxamide]: 5.25 nM.
With `Cc1ncncc1-c1cc(NC(=O)C2CC2)ccc1OCCN1CCOCC1` [Compound 391, N-(3-(4-methylpyrimidin-5-yl)-4-(2-morpholinoethoxy)phenyl)cyclopropanecarboxamide] the figure was 25.3 nM; with `Cc1ncnc(C)c1-c1cc(NC(=O)[C@@H]2C[C@@H]2F)ccc1OCCN1CCOCC1` [Compound 392, (1S,2S)—N-[3-(4,6-dimethylpyrimidin-5-yl)-4-(2-morpholinoethoxy)phenyl]-2-fluoro-cyclopropanecarboxamide], 15.2 nM; with `Cc1ncoc1C(=O)Nc1ccc(OCCN2CCOCC2)c(-c2c(C)ncnc2C)c1` [Compound 393, N-(3-(4,6-dimethylpyrimidin-5-yl)-4-(2-morpholinoethoxy)phenyl)-4-methyloxazole-5-carboxamide], 11.2 nM.
With `Cc1ncnc(C)c1-c1cc(NC(=O)c2ccnn2C)ccc1OCCN1CCOCC1` [Compound 394, N-(3-(4,6-dimethylpyrimidin-5-yl)-4-(2-morpholinoethoxy)phenyl)-1-methyl-1H-pyrazole-5-carboxamide] the figure was 13 nM; with `CCCC(=O)Nc1ccc(OC2CNC2)c(-c2c(C)ncnc2C)c1` [Compound 397, N-(4-(azetidin-3-yloxy)-3-(4,6-dimethylpyrimidin-5-yl)phenyl) butyramide], 8.59 nM.
For `Cc1ncnc(C)c1-c1cc(NC(=O)c2ccnn2C)ccc1OC1CNC1` [Compound 399, N-(4-(azetidin-3-yloxy)-3-(4,6-dimethylpyrimidin-5-yl)phenyl)-1-methyl-1H-pyrazole-5-carboxamide], the Ki came to 12.8 nM.
For the molecule `CCOC1CC1C(=O)Nc1ccc(OCCN2CCOCC2)c(-c2c(C)ncnc2C)c1` (centres unmarked) [Compound 401, N-(3-(4,6-dimethylpyrimidin-5-yl)-4-(2-morpholinoethoxy)phenyl)-2-ethoxycyclopropane-1-carboxamide], the Ki worked out at 30.9 nM.
As for `Cc1ncnc(C)c1-c1cc(NC(=O)c2c(F)cnn2C)ccc1OC1CNC1` [Compound 402, N-(4-(azetidin-3-yloxy)-3-(4,6-dimethylpyrimidin-5-yl)phenyl)-4-fluoro-1-methyl-1H-pyrazole-5-carboxamide], the Ki is 2.87 nM.
Turning to `Cc1ncnc(C)c1-c1cc(NC(=O)C2CC2)ccc1O[C@@H]1CCNC1` [Compound 403, N-[3-(4,6-dimethylpyrimidin-5-yl)-4-[(3R)-pyrrolidin-3-yl]oxy-phenyl]cyclopropanecarboxamide], the Ki turned out to be 24.9 nM.
With `Cc1ncnc(C)c1-c1cc(NC(=O)C2CC2)ccc1O[C@H]1CCNC1` [Compound 404, (S)—N-(3-(4,6-dimethylpyrimidin-5-yl)-4-(pyrrolidin-3-yloxy)phenyl)cyclopropanecarboxamide] the figure was 69.2 nM.
Next, `Cc1ncnc(C)c1-c1cc(NC(=O)C2CC2)ccc1OC[C@H]1CCN1` [Compound 405, N-[4-[[(2R)-azetidin-2-yl]methoxy]-3-(4,6-dimethylpyrimidin-5-yl)phenyl]cyclopropanecarboxamide]: 52.4 nM; `Cc1ncnc(C)c1-c1cc(NC(=O)C2CC2)ccc1OC[C@@H]1CCN1` [Compound 406, (S)—N-(4-(azetidin-2-ylmethoxy)-3-(4,6-dimethylpyrimidin-5-yl)phenyl)cyclopropanecarboxamide]: 57 nM; `Cc1ncnc(C)c1-c1cc(NC(=O)C2CC2)ccc1OC[C@@H]1CCCN1` [Compound 407, N-[3-(4,6-dimethylpyrimidin-5-yl)-4-[[(2S)-pyrrolidin-2-yl]methoxy]phenyl]cyclopropanecarboxamide]: 168 nM.
With `Cc1ncnc(C)c1-c1cc(NC(=O)C2CC2)ccc1OC[C@H]1CCCN1` [Compound 408, (R)—N-(3-(4,6-dimethylpyrimidin-5-yl)-4-(pyrrolidin-2-ylmethoxy)phenyl)cyclopropanecarboxamide] the figure was 29.9 nM; with `Cc1ncnc(C)c1-c1cc(NC(=O)[C@H]2C[C@H]2F)ccc1O[C@@H]1CCCNC1` [Compound 410, (1R,2R)—N-(3-(4,6-dimethylpyrimidin-5-yl)-4-(((R)-piperidin-3-yl)oxy)phenyl)-2-fluorocyclopropane-1-carboxamide], 37.4 nM.
In the case of `Cc1ncnc(C)c1-c1cc(NC(=O)[C@@H]2C[C@@H]2F)ccc1O[C@@H]1CCCNC1` [Compound 411, (1S,2S)—N-(3-(4,6-dimethylpyrimidin-5-yl)-4-(((R)-piperidin-3-yl)oxy)phenyl)-2-fluorocyclopropane-1-carboxamide], the Ki was 12.8 nM.
For `Cc1ncsc1C(=O)Nc1ccc(O[C@@H]2CCCNC2)c(-c2c(C)ncnc2C)c1` [Compound 412, (R)—N-(3-(4,6-dimethylpyrimidin-5-yl)-4-(piperidin-3-yloxy)phenyl)-4-methylthiazole-5-carboxamide], the Ki was found to be 20 nM.
Next, `Cc1nc(C)c(C(=O)Nc2ccc(O[C@@H]3CCCNC3)c(-c3c(C)ncnc3C)c2)s1` [Compound 413, (R)—N-(3-(4,6-dimethylpyrimidin-5-yl)-4-(piperidin-3-yloxy)phenyl)-2,4-dimethylthiazole-5-carboxamide]: 255 nM; `Cc1cnoc1C(=O)Nc1ccc(O[C@@H]2CCCNC2)c(-c2c(C)ncnc2C)c1` [Compound 414, (R)—N-(3-(4,6-dimethylpyrimidin-5-yl)-4-(piperidin-3-yloxy)phenyl)-4-methylisoxazole-5-carboxamide]: 91 nM.
On to `Cc1ncoc1C(=O)Nc1ccc(O[C@@H]2CCCNC2)c(-c2c(C)ncnc2C)c1` [Compound 415, (R)—N-(3-(4,6-dimethylpyrimidin-5-yl)-4-(piperidin-3-yloxy)phenyl)-4-methyloxazole-5-carboxamide], for which the Ki was determined as 101 nM.
